# Publication PMC7912881, “Polyhydroxy p-Terphenyls from a Mangrove Endophytic Fungus Aspergillus candidus LDJ-5” (Marine Drugs, 2021)
# Read-outs that look alike come from different tables or passages of the source.
# Key:
# Bacillus cereus = test: Antimicrobial activity, agar dilution method; format: cell-based
# Experimental: (§1) All p-terphenyls (1–7) were tested for their cytotoxicity against the L-02, MGC-803, HCT-116, BEL-7402, A549, SH-SY5Y, Hela, U87, K562, HL-60, HO8910, and MCF-7 cell lines using either the SRB or the MTT method with adriamycin as positive control. […] Recently, we have also reported nine prenylated p-terphenyls from Aspergillus candidus LDJ-5 [6]. Most of the prenylated p-terphenyls were cytotoxic. Additionally, comparing to prenylcandidusin B and prenylcandidusin C, compounds 2 and 3 were distinguished by the presence of one hydroxy group and the lack of the isoprenyl group on ring C (C-3″). […] The antimicrobial activities of compounds 1–7 were evaluated in vitro against Proteus species, Pseudomonas aeruginosa, Bacillus subtilis, B. cereus, and Mycobacterium phlei. […] Asperterphenyllin A (1) was also tested for antiviral activity and protein tyrosine phosphatase 1B (PTP1B) inhibitory activity. The antiviral activity of asperterphenyllin A (1) was evaluated against the influenza A virus (H1N1) using the cytopathic effect (CPE) inhibition assay. […] Protein tyrosine phosphatase 1B (PTP1B) has been reported to be a novel drug target for diabetes and obesity. It has also been considered to be involved in tumorigenesis.
# (§2) Antimicrobial activities were evaluated as previously reported by using the agar dilution method. The five microbial strains included Proteus sp., Pseudomonas aeruginosa, Bacillus subtilis, B. cereus, and Mycobacterium phlei. Ciprofloxacin was used as positive control. All strains were donated by the Qingdao municipal hospital.
# Bacillus subtilis = test: Antimicrobial activity, agar dilution method; format: cell-based
# Experimental: as §1, §2
# Mycobacterium phlei = test: Antimicrobial activity, agar dilution method; format: cell-based; conditions: Mycolicibacterium phlei
# Experimental: as §1, §2
# Proteus species = test: Antimicrobial activity, agar dilution method; format: cell-based
# Experimental: as §1, §2
# Pseudomonas aeruginosa = test: Antimicrobial activity, agar dilution method; format: cell-based
# Experimental: as §1, §2
# [1] = test system: L-02, MGC-803, HCT-116, BEL-7402, A549, SH-SY5Y, Hela, U87, K562, HL-60, HO8910, and MCF-7 cell lines; test: Cytotoxicity against the panel of cell lines (SRB or MTT method); format: cell-based, human; conditions: for IC50: Homo sapiens; for cytotoxicity effects: compared with prenylcandidusins on K562
# Experimental: as §1
# (§3) The cytotoxicity of 1–7 and positive control was evaluated against human leukemia cell lines K562 and HL-60 (using the MTT method), human normal liver cell line L-02, human gastric cancer cell lines MGC-803, human colon cancer lines HCT-116, human hepatocacinoma cell line BEL-7402, human lung cancer cell lines A549, human neuroblastoma cell line SH-SY5Y, human cervical cancer cell lines HeLa, human glioma cell lines U87, human ovarian cancer cell lines HO-8910, and human breast cancer cell lines MCF-7 (using the SRB method). Adriamycin was used as positive control. The detailed methodologies for biological testing have been described in previous reports. All the cell lines were purchased from the Institute of Biochemistry and Cell Biology, Chinese Academy of Sciences (Shanghai, China).
# influenza A virus (H1N1) = test: Anti-influenza A viral (H1N1) CPE inhibition assay; format: cell-based
# Experimental: as §1
# The antiviral activity of compound 1 against influenza A virus (H1N1) was evaluated by the CPE inhibition assay. […]
# [2] = target: T1, protein tyrosine phosphatase 1B (PTP1B) (Homo sapiens, UniProt P18031); test: PTP1B inhibitory assay (pNPP hydrolysis); format: biochemical; conditions: pNPP substrate, room temperature
# T1 sequence (P18031 1-435): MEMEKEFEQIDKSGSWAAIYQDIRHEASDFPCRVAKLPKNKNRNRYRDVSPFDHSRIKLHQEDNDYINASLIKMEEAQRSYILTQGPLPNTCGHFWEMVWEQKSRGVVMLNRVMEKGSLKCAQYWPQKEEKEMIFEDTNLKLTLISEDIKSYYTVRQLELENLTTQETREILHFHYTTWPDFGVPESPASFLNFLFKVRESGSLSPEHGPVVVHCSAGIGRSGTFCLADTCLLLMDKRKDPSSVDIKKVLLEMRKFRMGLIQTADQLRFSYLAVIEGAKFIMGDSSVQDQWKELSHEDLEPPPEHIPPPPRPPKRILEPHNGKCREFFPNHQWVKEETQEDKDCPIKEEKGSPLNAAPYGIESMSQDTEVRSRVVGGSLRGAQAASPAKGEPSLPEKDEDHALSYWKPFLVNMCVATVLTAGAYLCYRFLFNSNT
# Cytotoxicity, SRB method = format: cell-based; conditions: L-02 normal liver cells, L-02 human normal liver cell line
# Experimental: as §1, §3
# A549 cell line = test: Cytotoxicity, SRB method; format: cell-based; conditions: A549 human lung cancer cell line
# Experimental: as §1, §3
# BEL-7402 cell line = test: Cytotoxicity, SRB method; format: cell-based; conditions: BEL-7402 human hepatocarcinoma cell line
# Experimental: as §1, §3
# HCT-116 cell line = test: Cytotoxicity, SRB method; format: cell-based; conditions: HCT-116 human colon cancer cell line
# Experimental: as §1, §3
# HO8910 cell line = test: Cytotoxicity, SRB method; format: cell-based; conditions: HO-8910, HO8910 human ovarian cancer cell line
# Experimental: as §1, §3
# Hela cell line = test: Cytotoxicity, SRB method; format: cell-based; conditions: Hela human cervical cancer cell line
# Experimental: as §1, §3
# MGC-803 cell line = test: Cytotoxicity, SRB method; format: cell-based; conditions: MGC-803 human gastric cancer cell line
# Experimental: as §1, §3
# SH-SY5Y cell line = test: Cytotoxicity, SRB method; format: cell-based; conditions: SH-SY5Y human neuroblastoma cell line
# Experimental: as §1, §3
# U87 cell line = test: Cytotoxicity, SRB method; format: cell-based; conditions: U-87 MG, U87 human glioma cell line
# Experimental: as §1, §3
# K562 cell lines = test system: K562 cell lines; design: method as in PMID 31827255; conditions: cited from earlier work
# [3] = all twelve tested cell lines, SRB or MTT, read-out: IC50 against all tested cell lines
compound,measurement,setting,value
"O=C(O)c1cn(C2CC2)c2cc(N3CCNCC3)c(F)cc2c1=O [Ciprofloxacin, reference compound]",MIC,Bacillus cereus,2.07 µg/mL
same,MIC,Bacillus subtilis,4.14 µg/mL
same,MIC,Mycobacterium phlei,0.52 µg/mL
same,MIC,Proteus species,0.26 µg/mL
same,MIC,Pseudomonas aeruginosa,0.52 µg/mL
"COc1c(-c2ccc(O)c(O)c2)cc(OC)c2c1oc1c(-c3c(O)c(O)cc4c3oc3c(OC)c(-c5ccc(O)c(O)c5)cc(OC)c34)c(O)c(O)cc12 [Compound 1, Asperterphenyllin A]",IC50,[1]; [3],> 50000 nM
same,IC50,"influenza A virus (H1N1); H1N1, CPE inhibition assay, read-out: IC50 anti-influenza virus A (H1N1) activity",53000 nM
same,IC50,[2],21000 nM
same,MIC,Bacillus cereus,> 200 µg/mL
same,MIC,Bacillus subtilis,> 200 µg/mL
same,MIC,Mycobacterium phlei,> 200 µg/mL
same,MIC,Proteus species,> 200 µg/mL
same,MIC,Pseudomonas aeruginosa,> 200 µg/mL
"COc1cc2oc3c(OC)c(-c4ccc(O)c(O)c4)cc(OC)c3c2cc1OC [Compound 2, Asperterphenyllin B]",IC50,[1]; [3],> 50000 nM
same,cytotoxicity effects,[1],did not show any cytotoxicity effects
same,MIC,Bacillus cereus,> 200 µg/mL
same,MIC,Bacillus subtilis,> 200 µg/mL
same,MIC,Mycobacterium phlei,79 µg/mL
same,MIC,Proteus species,> 200 µg/mL
same,MIC,Pseudomonas aeruginosa,40 µg/mL
"COc1cc2oc3c(OC)c(-c4ccc(O)c(O)c4)cc(OC)c3c2cc1O [Compound 3, Asperterphenyllin C]",IC50,[1]; [3],> 50000 nM
same,cytotoxicity effects,[1],did not show any cytotoxicity effects
same,MIC,Bacillus cereus,> 200 µg/mL
same,MIC,Bacillus subtilis,38 µg/mL
same,MIC,Mycobacterium phlei,38 µg/mL
same,MIC,Proteus species,19 µg/mL
same,MIC,Pseudomonas aeruginosa,> 200 µg/mL
"COc1cc(-c2ccc(O)cc2)c(OC)c(OC)c1-c1ccc(O)c(O)c1 [Compound 4, Asperterphenyllin D]",IC50,[1]; [3],> 50000 nM
same,MIC,Bacillus cereus,70 µg/mL
same,MIC,Bacillus subtilis,> 200 µg/mL
same,MIC,Mycobacterium phlei,> 200 µg/mL
same,MIC,Proteus species,> 200 µg/mL
same,MIC,Pseudomonas aeruginosa,> 200 µg/mL
"COc1cc(-c2c(OC)cc(-c3ccccc3)c(OC)c2O)ccc1O [Compound 5, Asperterphenyllin E]",IC50,[1]; [3],> 50000 nM
same,MIC,Bacillus cereus,70 µg/mL
same,MIC,Bacillus subtilis,70 µg/mL
same,MIC,Mycobacterium phlei,70 µg/mL
same,MIC,Proteus species,35 µg/mL
same,MIC,Pseudomonas aeruginosa,70 µg/mL
"COc1cc(-c2ccc(O)c(O)c2)c(OC)c(O)c1-c1ccccc1 [Compound 6, Asperterphenyllin F]",IC50,[1]; [3],> 50000 nM
same,MIC,Bacillus cereus,> 200 µg/mL
same,MIC,Bacillus subtilis,> 200 µg/mL
same,MIC,Mycobacterium phlei,> 200 µg/mL
same,MIC,Proteus species,> 200 µg/mL
same,MIC,Pseudomonas aeruginosa,> 200 µg/mL
"COc1cc(-c2ccc(O)cc2)c(OC)c(O)c1-c1ccc(OC/C=C(\C)CO)c(O)c1 [Compound 7, Asperterphenyllin G]",IC50,"Cytotoxicity, SRB method",1700 nM
same,IC50,A549 cell line,400 nM
same,IC50,BEL-7402 cell line,6000 nM
same,IC50,HCT-116 cell line,800 nM
same,IC50,HO8910 cell line,1300 nM
same,IC50,Hela cell line,1700 nM
same,IC50,MGC-803 cell line,1000 nM
same,IC50,SH-SY5Y cell line,600 nM
same,IC50,U87 cell line,900 nM
same,IC50,[1]; read-out: IC50 values against nine cell lines (range),400 to 1700 nM
same,MIC,Bacillus cereus,87 µg/mL
same,MIC,Bacillus subtilis,> 200 µg/mL
same,MIC,Mycobacterium phlei,> 200 µg/mL
same,MIC,Proteus species,> 200 µg/mL
same,MIC,Pseudomonas aeruginosa,> 200 µg/mL
COc1cc2oc3c(OC)c(-c4ccc(O)c(CC=C(C)C)c4)cc(OC)c3c2cc1OC [Prenylcandidusin B],inhibitory activity against K562 cell lines,K562 cell lines,moderate inhibitory activity
COc1cc2oc3c(OC)c(-c4ccc(O)c(CC=C(C)C)c4)cc(OC)c3c2cc1O [prenylcandidusin C],inhibitory activity against K562 cell lines,K562 cell lines,moderate inhibitory activity
"NC(=O)c1ncn([C@@H]2O[C@H](CO)[C@@H](O)[C@H]2O)n1 [ribavirin, reference compound]",IC50,"influenza A virus (H1N1); H1N1, read-out: IC50 anti-influenza virus A (H1N1) activity",35000 nM
